From BigSolDB 2.1

O=[N+]([O-])/N=C1\NCCN1Cc1ccc(Cl)nc1
solubility (mole fraction)
Conditions	293.15 K	298.15 K	303.15 K	308.15 K	313.15 K	318.15 K	323.15 K	328.15 K	333.15 K
in ethanol	0.0006	0.0008	0.0009	0.0012	0.0015	0.0019	0.0025	0.003	0.0036
in ethyl acetate	0.0027	0.0029	0.0034	0.0039	0.0044	0.0053	0.0061	0.0071	0.0084
in methanol	0.0012	0.0015	0.0018	0.0023	0.0027	0.0036	0.0044	0.0054	0.0067
in methyl acetate	0.0037	0.0042	0.0048	0.0057	0.0067	0.0078	0.0092	0.0107	–
in n-butanol	0.0004	0.0005	0.0006	0.0008	0.001	0.0013	0.0017	0.0021	0.0026
in n-butyl acetate	0.0015	0.0019	0.0021	0.0027	0.0032	0.0035	0.0037	0.0041	0.0048
in n-propanol	0.0005	0.0006	0.0008	0.0011	0.0013	0.0017	0.0022	0.0028	0.0034
